Patent US12630529B2, “GCN2 modulator compounds” (ALESTA THERAPEUTICS BV, priority 2020, dated 2026)
pIC50: −log10 of the molar value.

Key:
HT29 cells = experiment: Growth of tumor spheroids; format: cell-based; settings: 64 μM arginine, up to 120 hours, vs untreated spheroids
Experimental: The growth of tumor spheroids was evaluated following treatment of cells with Compound 1, Compound 2 and Compound 108. Briefly, HT29 cells were seeded at 5,000 cells/well in ultra-low attachment round bottom 96-well plates, in 100 μL SILAC DMEM Flex media without phenol red, supplemented with 10% fetal bovine serum (FBS), 1 g/L glucose, 2 mM glutamine, 220 μM lysine, and 64 μM arginine. The plates were centrifuged for 10 minutes at 125×g and put in a humidified incubator at 37° C. for 3 days before the onset of the experiment to allow spheroids to form.
Three days after seeding, 10 μM Compound 1, 10 μM Compound 2, 10 μM Compound 108 or 10 μM vehicle control (0.1% DMSO), were added together with 100 nM fluorescent apoptosis stain (e.g., YO-PRO™-1 Iodide; Thermo Fisher) to detect apoptotic cells and Nuclear-ID Red DNA Stain (1:100,000; ENZO Life Sciences) to detect live cells. Plates were placed in a live-cell imaging and analysis platform (e.g., IncuCyte ZOOM®; Essenbio) set up in a humidified incubator at 37° C. and scanned every 4 hours for up 120 hours, at 10× magnification, to determine relative spheroid size and cell death. Experiments were performed in quadruplicate and analyzed using live-cell imaging and analysis software (e.g., IncuCyte ZOOM® 2018A software; Essenbio).

GCN2 = GCN2 (Homo sapiens, UniProt Q9P2K8); experiment: GCN2 enzyme inhibition assay (Reaction Biology EIF2AK4/GCN2 kinase assay); format: biochemical; design: purchased Reaction Biology Corp; settings: human GCN2 enzyme activity, 10 μM ATP, 20 μM peptide substrate
Chain of GCN2 (Q9P2K8 whole entry): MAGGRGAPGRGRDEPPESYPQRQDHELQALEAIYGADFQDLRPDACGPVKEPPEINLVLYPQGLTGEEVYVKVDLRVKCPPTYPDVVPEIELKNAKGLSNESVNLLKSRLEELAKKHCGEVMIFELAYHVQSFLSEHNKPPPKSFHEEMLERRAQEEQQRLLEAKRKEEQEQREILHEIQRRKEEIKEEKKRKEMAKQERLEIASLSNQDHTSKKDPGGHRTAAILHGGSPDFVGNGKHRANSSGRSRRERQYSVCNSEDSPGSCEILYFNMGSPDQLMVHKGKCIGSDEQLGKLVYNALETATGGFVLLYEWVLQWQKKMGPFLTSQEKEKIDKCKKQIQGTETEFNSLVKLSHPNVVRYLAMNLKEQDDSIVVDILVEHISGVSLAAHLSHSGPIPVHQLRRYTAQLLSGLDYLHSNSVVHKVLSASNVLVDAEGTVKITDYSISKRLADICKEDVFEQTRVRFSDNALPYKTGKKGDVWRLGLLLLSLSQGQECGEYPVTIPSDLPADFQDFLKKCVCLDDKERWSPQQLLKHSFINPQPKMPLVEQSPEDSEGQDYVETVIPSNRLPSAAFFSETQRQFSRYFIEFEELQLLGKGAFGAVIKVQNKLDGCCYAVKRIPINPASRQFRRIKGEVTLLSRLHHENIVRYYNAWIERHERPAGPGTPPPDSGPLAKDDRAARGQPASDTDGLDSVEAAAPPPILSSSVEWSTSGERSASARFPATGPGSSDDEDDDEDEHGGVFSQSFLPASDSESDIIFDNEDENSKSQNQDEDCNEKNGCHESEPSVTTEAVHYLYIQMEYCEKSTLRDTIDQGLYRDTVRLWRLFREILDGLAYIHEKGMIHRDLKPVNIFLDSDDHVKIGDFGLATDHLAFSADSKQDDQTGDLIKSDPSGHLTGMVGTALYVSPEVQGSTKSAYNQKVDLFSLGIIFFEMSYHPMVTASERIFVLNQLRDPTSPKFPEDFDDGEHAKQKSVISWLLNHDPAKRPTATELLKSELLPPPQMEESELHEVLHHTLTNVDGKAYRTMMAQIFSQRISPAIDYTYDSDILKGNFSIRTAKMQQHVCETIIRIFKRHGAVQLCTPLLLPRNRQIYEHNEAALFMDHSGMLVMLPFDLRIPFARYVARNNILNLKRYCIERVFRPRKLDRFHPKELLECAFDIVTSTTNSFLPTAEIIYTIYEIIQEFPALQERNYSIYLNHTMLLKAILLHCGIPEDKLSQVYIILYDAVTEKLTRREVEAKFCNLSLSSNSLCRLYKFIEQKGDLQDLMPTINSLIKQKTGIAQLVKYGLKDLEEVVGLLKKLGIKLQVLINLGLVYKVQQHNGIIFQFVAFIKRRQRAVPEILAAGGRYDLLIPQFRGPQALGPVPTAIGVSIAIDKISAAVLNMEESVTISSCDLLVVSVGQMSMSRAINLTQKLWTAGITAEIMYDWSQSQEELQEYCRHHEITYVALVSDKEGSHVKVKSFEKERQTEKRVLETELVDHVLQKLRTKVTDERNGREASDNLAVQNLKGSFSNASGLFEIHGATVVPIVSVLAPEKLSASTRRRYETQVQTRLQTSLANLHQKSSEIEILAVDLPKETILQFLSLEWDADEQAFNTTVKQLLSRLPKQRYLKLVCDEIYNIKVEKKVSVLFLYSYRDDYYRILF
Experimental: In order to validate the above results, human GCN2 enzyme activity was measured in Reaction Biology Corp (EIF2AK4/GCN2 kinase assay). Compounds were tested in 5-dose IC50 mode for non-active compounds and 10-dose IC50 mode for active compounds with 3-fold serial dilution starting at 30 μM and 0.1 μM respectively. Control compound Staurosporine was tested in 10-dose IC50 mode with 4-fold serial dilution starting at 20 μM. Reactions were carried out at 10 μM ATP using 20 μM peptide substrate [GRSRSRSRSR]. For IC50 values: +++ refers to <10 nM of test compound; ++ refers to 10 nM to 100 nM of test compound; + refers to 100 nM to 1,000 nM of test compound and − refers to >1,000 nM of test compound.

Structure (SMILES) | spheroid size and viability (HT29 cells) | pIC50 (GCN2)
Nc1ncc2cc(-c3c(F)ccc(NS(=O)(=O)c4cc(Cl)ccc4Cl)c3F)ccc2n1 [Compound 2] | relative reduction in spheroid size and viability in a dose-dependent manner | > 8.00
COc1ncc(Cl)cc1S(=O)(=O)Nc1ccc(F)c(-c2ccc3nc(N)ncc3c2)c1F [Compound 1] | relative reduction in spheroid size and viability in a dose-dependent manner | 7.00 to 8.00
